Laboratory results taken from article PMC5909127, “Optimization of a “bump-and-hole” approach to allele-selective BET bromodomain inhibition” (Chemical Science, 2018).

How the values were obtained:
[1] = system: L/V somatic BET bromodomains; assay: ITC
[2] = biological target: BRD4 BD2 L/V (Homo sapiens, UniProt O60885, L387V); assay: ITC; format: binding
[3] = biological target: T1, BRD4 BD1 WT (Homo sapiens, UniProt O60885); assay: competitive AlphaLISA; format: binding
[4] = biological target: BRD2 BD1 WT (Homo sapiens, UniProt P25440); assay: ITC; format: binding
[5] = biological target: T2, BRD3 BD2 WT (Homo sapiens, UniProt Q15059); assay: competitive AlphaLISA; format: binding
[6] = biological target: BRD2 BD2 L/V (Homo sapiens, UniProt P25440, L383V); assay: ITC; format: binding
[7] = Plasma Half-life; details: BALB/c, mouse, pH 7.4
[8] = biological target: T3, BRD4 BD1 L/V (Homo sapiens, UniProt O60885, L94V); assay: ITC; format: binding; details: for Kd: Kd BRD4 BD1 L/V
[9] = biological target: T1, BRD4 BD1 WT; assay: ITC; format: binding
[10] = biological target: T4, BRD3 BD1 L/V (Homo sapiens, UniProt Q15059, L70V); assay: competitive AlphaLISA; format: binding
[11] = biological target: BRD2 BD1 L/V (Homo sapiens, UniProt P25440, L110V); assay: ITC; format: binding
[12] = biological target: BRD2 BD2 WT (Homo sapiens, UniProt P25440); assay: ITC; format: binding
[13] = biological target: BRD3 BD1 WT (Homo sapiens, UniProt Q15059); assay: ITC; format: binding
[14] = biological target: T3, BRD4 BD1 L/V; assay: competitive AlphaLISA; format: binding
[15] = biological target: T4, BRD3 BD1 L/V; assay: ITC; format: binding
[16] = biological target: BRD3 BD2 L/V (Homo sapiens, UniProt Q15059, L345V); assay: ITC; format: binding
[17] = biological target: BRD4 BD2 WT (Homo sapiens, UniProt O60885); assay: ITC; format: binding
[18] = biological target: T2, BRD3 BD2 WT; assay: ITC; format: binding

T4 sequence (Q15059 24-144 L70V limits assumed): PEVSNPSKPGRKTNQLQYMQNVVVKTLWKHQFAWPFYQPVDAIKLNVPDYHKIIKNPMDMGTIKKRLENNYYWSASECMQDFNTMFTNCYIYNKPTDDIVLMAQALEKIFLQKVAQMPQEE
Sequence of BRD2 BD1 L/V (P25440 71-176 L110V limits assumed): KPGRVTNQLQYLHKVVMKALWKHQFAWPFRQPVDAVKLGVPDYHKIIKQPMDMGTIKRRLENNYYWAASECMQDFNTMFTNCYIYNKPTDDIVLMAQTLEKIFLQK
Sequence of BRD2 BD2 L/V (P25440 344-455 L383V): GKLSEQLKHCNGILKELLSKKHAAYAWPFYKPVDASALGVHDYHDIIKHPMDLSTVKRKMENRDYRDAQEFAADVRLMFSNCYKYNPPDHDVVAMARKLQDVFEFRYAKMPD
Sequence of BRD3 BD2 L/V (Q15059 306-416 L345V limits assumed): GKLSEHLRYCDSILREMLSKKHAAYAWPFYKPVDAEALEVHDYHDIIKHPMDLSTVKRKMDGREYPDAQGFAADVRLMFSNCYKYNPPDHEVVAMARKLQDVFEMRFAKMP
T2 sequence (Q15059 306-416): as the sequence (Q15059 306-416 L345V limits assumed) above, with V40L counted along it
Sequence of BRD3 BD1 WT (Q15059 24-144): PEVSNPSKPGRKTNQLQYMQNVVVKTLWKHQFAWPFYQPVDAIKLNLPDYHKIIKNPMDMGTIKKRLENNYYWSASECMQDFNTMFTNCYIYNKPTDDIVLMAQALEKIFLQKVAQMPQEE
Sequence of BRD2 BD2 WT (P25440 344-455): as the sequence (P25440 344-455 L383V) above, with V40L counted along it
Sequence of BRD2 BD1 WT (P25440 71-176): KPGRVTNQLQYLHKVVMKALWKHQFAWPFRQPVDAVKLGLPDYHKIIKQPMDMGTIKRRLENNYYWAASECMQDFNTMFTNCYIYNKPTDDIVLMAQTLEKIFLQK

Compound: CC[C@@H](C(=O)OC)[C@@H]1N=C(c2ccc(Cl)cc2)c2ccc(OC)cc2-n2c(C)nnc21 (racemic) [Compound 8]
- ITC pKd ± SD Δ ([1]; L/V minus WT): >2.2 ± 0.2
- selectivity for the L/V mutant over wild-type ([1]; across the BET subfamily, ITC): > 100 fold
- ITC pKd ± SD L/V ([1]; mean and SD of all somatic bromodomains): 6.4 ± 0.2
- Kd [2]: 740 nM
- selectivity plot WT 2.1 vs L/V 4.2 ([2]; Kd BRD2 BD1 WT / Kd BRD4 BD2 L/V): > 80
- selectivity plot WT 2.2 vs L/V 4.2 ([2]; Kd BRD2 BD2 WT / Kd BRD4 BD2 L/V): > 80
- selectivity plot WT 3.1 vs L/V 4.2 ([2]; Kd BRD3 BD1 WT / Kd BRD4 BD2 L/V): 40
- selectivity plot WT 3.2 vs L/V 4.2 ([2]; Kd BRD3 BD2 WT / Kd BRD4 BD2 L/V): > 80
- selectivity plot WT 4.1 vs L/V 4.2 ([2]; Kd BRD4 BD1 WT / Kd BRD4 BD2 L/V): > 80
- selectivity plot WT 4.2 vs L/V 4.2 ([2]; Kd BRD4 BD2 WT / Kd BRD4 BD2 L/V): > 80
- IC50 ([3]; AlphaLISA pIC50 Value BRD4 BD1 WT): 1580 nM
- IC50 ([3]; pIC50 BRD4 BD1 WT, separated enantiomers test, total compound concentration): 50100 nM
- Kd [4]: > 60000 nM
- IC50 [5]: 3980 nM
- Kd [6]: 300 nM
- selectivity plot WT 2.1 vs L/V 2.2 ([6]; Kd BRD2 BD1 WT / Kd BRD2 BD2 L/V): > 200
- selectivity plot WT 2.2 vs L/V 2.2 ([6]; Kd BRD2 BD2 WT / Kd BRD2 BD2 L/V): > 200
- selectivity plot WT 3.1 vs L/V 2.2 ([6]; Kd BRD3 BD1 WT / Kd BRD2 BD2 L/V): 100
- selectivity plot WT 3.2 vs L/V 2.2 ([6]; Kd BRD3 BD2 WT / Kd BRD2 BD2 L/V): > 200
- selectivity plot WT 4.1 vs L/V 2.2 ([6]; Kd BRD4 BD1 WT / Kd BRD2 BD2 L/V): > 200
- selectivity plot WT 4.2 vs L/V 2.2 ([6]; Kd BRD4 BD2 WT / Kd BRD2 BD2 L/V): > 200
- half-life at 50 µM [7]: > 3 h
- N BRD4 BD1 L/V ([8]; ITC stoichiometry, total compound concentration): 1.42 ±0.02
- ΔH BRD4 BD1 L/V ([8]; ITC, total compound concentration): -3.5 ± 0.1 kcal/mol
- selectivity plot WT 2.1 vs L/V 4.1 ([8]; Kd BRD2 BD1 WT / Kd BRD4 BD1 L/V): > 110
- selectivity plot WT 2.2 vs L/V 4.1 ([8]; Kd BRD2 BD2 WT / Kd BRD4 BD1 L/V): > 100
- selectivity plot WT 3.1 vs L/V 4.1 ([8]; Kd BRD3 BD1 WT / Kd BRD4 BD1 L/V): 60
- selectivity plot WT 3.2 vs L/V 4.1 ([8]; Kd BRD3 BD2 WT / Kd BRD4 BD1 L/V): > 110
- Kd ([8]; ITC of separated enantiomers and racemates, total compound concentration): 840 ± 170 nM
- Kd ([8]; ITC, 30°C): 530 nM
- selectivity plot WT 4.1 vs L/V 4.1 ([8]; Kd BRD4 BD1 WT / Kd BRD4 BD1 L/V): > 100
- selectivity plot WT 4.2 vs L/V 4.1 ([8]; Kd BRD4 BD2 WT / Kd BRD4 BD1 L/V): > 100
- Kd [9]: > 60000 nM
- IC50 [10]: 126 nM
- Kd [11]: 340 nM
- selectivity plot WT 2.1 vs L/V 2.1 ([11]; Kd BRD2 BD1 WT / Kd BRD2 BD1 L/V): > 180
- selectivity plot WT 2.2 vs L/V 2.1 ([11]; Kd BRD2 BD2 WT / Kd BRD2 BD1 L/V): > 180
- selectivity plot WT 3.1 vs L/V 2.1 ([11]; Kd BRD3 BD1 WT / Kd BRD2 BD1 L/V): 90
- selectivity plot WT 3.2 vs L/V 2.1 ([11]; Kd BRD3 BD2 WT / Kd BRD2 BD1 L/V): > 180
- selectivity plot WT 4.1 vs L/V 2.1 ([11]; Kd BRD4 BD1 WT / Kd BRD2 BD1 L/V): > 180
- selectivity plot WT 4.2 vs L/V 2.1 ([11]; Kd BRD4 BD2 WT / Kd BRD2 BD1 L/V): > 180
- Kd [12]: > 60000 nM
- Kd [13]: 29000 nM
- IC50 ([14]; AlphaLISA pIC50 Value BRD4 BD1 L/V): 126 nM
- ΔpIC50 BRD4 BD1 ([14]; L/V minus WT, total compound concentration): 1.4
- IC50 ([14]; pIC50 BRD4 BD1 L/V, separated enantiomers test, total compound concentration): 2000 nM
- Kd [15]: 270 nM
- selectivity plot WT 2.1 vs L/V 3.1 ([15]; Kd BRD2 BD1 WT / Kd BRD3 BD1 L/V): > 230
- selectivity plot WT 2.2 vs L/V 3.1 ([15]; Kd BRD2 BD2 WT / Kd BRD3 BD1 L/V): > 230
- selectivity plot WT 3.1 vs L/V 3.1 ([15]; Kd BRD3 BD1 WT / Kd BRD3 BD1 L/V): 110
- selectivity plot WT 3.2 vs L/V 3.1 ([15]; Kd BRD3 BD2 WT / Kd BRD3 BD1 L/V): > 230
- selectivity plot WT 4.1 vs L/V 3.1 ([15]; Kd BRD4 BD1 WT / Kd BRD3 BD1 L/V): > 230
- selectivity plot WT 4.2 vs L/V 3.1 ([15]; Kd BRD4 BD2 WT / Kd BRD3 BD1 L/V): > 230
- Kd [16]: 410 nM
- selectivity plot WT 2.1 vs L/V 3.2 ([16]; Kd BRD2 BD1 WT / Kd BRD3 BD2 L/V): > 150
- selectivity plot WT 2.2 vs L/V 3.2 ([16]; Kd BRD2 BD2 WT / Kd BRD3 BD2 L/V): > 150
- selectivity plot WT 3.1 vs L/V 3.2 ([16]; Kd BRD3 BD1 WT / Kd BRD3 BD2 L/V): 70
- selectivity plot WT 3.2 vs L/V 3.2 ([16]; Kd BRD3 BD2 WT / Kd BRD3 BD2 L/V): > 150
- selectivity plot WT 4.1 vs L/V 3.2 ([16]; Kd BRD4 BD1 WT / Kd BRD3 BD2 L/V): > 150
- selectivity plot WT 4.2 vs L/V 3.2 ([16]; Kd BRD4 BD2 WT / Kd BRD3 BD2 L/V): > 150
- Kd [17]: > 60000 nM
- Kd [18]: > 60000 nM
